Reference: patent US20260071220A1, “CONJUGATE OF NUCLEOTIDE ANALOG-CONTAINING DOUBLE-STRANDED RNAI ANALOG” (BaseCure Therapeutics LLC, priority 2022, published 2026)
Several values for one entry are separate records, joined by “and”; a condition that tells them apart may be missing. Identical values can stand only once. In the oligonucleotide strings, read from the 5' end, every base follows the letter of its sugar. An asterisk marks phosphorothioate; unmarked linkages are phosphodiester. Other units and linkages are bracketed, terminal groups are in braces. A string of capitals states the bases alone. {D01} = GalNAc ligand D01, attached to sense strand by a phosphodiester bond; m = 2'-O-methyl; f = 2'-fluoro

Experiments:
[1] = system: AGT mRNA; assay: Free uptake experiment of PHH cells (AGT mRNA by qPCR); assay type: cell-based, human; settings: 48 h
Protocol: A sample to be tested was incubated with primary human hepatocytes. The downregulation degree of AGT mRNA by the sample to be tested was evaluated.
Primary human hepatocytes (PHH), RNeasy® 96 Kit (12) (QIAGEN-74182), FastKing RT Kit (With gDNase) (Tiangen-KR116-02), TaqMan Gene Expression Assay (GAPDH, Thermo, Assay ID-Hs02786624_g1), TaqMan Gene Expression Assay (AGT, Thermo, Assay ID-Hs01586213_m1).
A conjugate of the present invention was diluted with a PBS solution until the obtained concentration was 10 times the concentration to be tested. 10 uL of siRNA was transferred to a 96-well plate. PHH cells were thawed and seeded to the 96-well plate, and the final cell density was 5.4×10^5 cells/well. The conjugate of the present invention was tested for 10 concentration points, and the highest concentration was 500 nM, with 4-fold dilution.
The cells were incubated for 48 h under the conditions of 37° C. and 5% CO2, and the state of the cells was observed using a microscope.
After the incubation was completed, the cells were lysed, all of RNA was extracted from the obtained lysate using RNeasy® 96 Kit (QIAGEN-74182), and underwent reverse transcription using FastKing RT Kit (With gDNase) (Tiangen-KR116-02) to obtain cDNA. AGT cDNA was detected by qPCR.

[2] = system: AGT protein; assay: In vivo PD experiment of non-human primate cynomolgus monkey (plasma AGT protein); settings: for plasma AGT protein level after administration/before administration, Average: group average; for plasma AGT protein level after administration/before administration: individual animal
Description: The downregulation degree of cynomolgus monkey plasma AGT by the sample to be tested was observed through a non-human primate cynomolgus monkey model highly homologous to a human in AGT gene.
2. Experimental materials: cynomolgus monkeys, 1×PBS (phosphate buffer solution), AD-85481 (US2021095290), and a conjugate of the present invention.
10 cynomolgus monkeys with the weight of 2-3 kg were purchased, and the animals were adapted to quarantine for one week after arriving at an animal room.
On Day −6, cynomolgus monkeys were divided into groups at random according to weight data, with 2 cynomolgus monkeys in each group, the AGT protein concentrations in plasmas of all the cynomolgus monkeys were detected after grouping as an experimental data baseline for each group.
Administration was performed on Day 1. Group 1 was dosed with 1×PBS; group 2 was subcutaneously injected with AD-85481 at the dose of 0.3 mpk; group 3 was subcutaneously injected with AD-85481 at the dose of 3 mpk; group 4 was subcutaneously injected with the conjugate 2 of the present invention at the dose of 0.3 mpk; group 5 was subcutaneously injected with the conjugate 2 of the present invention at the dose of 3 mpk. Blood was collected on Day 1, 2, 4, 8, 15, 22, 29, 32, 35, 43, 57, 71 after administration to detect the AGT protein concentration in plasma of each cynomolgus monkey. By comparing the AGT protein concentration in plasma after administration to the AGT protein concentration on Day −6, the relative downregulation proportion of the AGT proteins in each group of animals was obtained.
4. In the table, the data represent AGT gene expression level after administration/AGT gene expression level before administration.

Conjugate 2: Double-stranded RNAi analog against AGT, D01 GalNAc ligand on sense strand; sense SEQ ID NO: 6, antisense SEQ ID NO: 2 containing Z (sense mA*mU*fCfCmAfCfAfAmUmGmAmGmAfGmUmAmCmA-{D01}; antisense CUCACAUGUACNCUCAUUGUGGAUGACGA; antisense: chemistry not given here; antisense strand modified, includes nucleotide analog Z, further chemistry not fully specified)
Emax (remaining AGT mRNA) [1]: 5% | EC50 ([1]; AGT mRNA, read-out: Absolute EC50): 0.197 nM | Log (concentration) ([1]; log of the absolute EC50 in nM): −0.705 | plasma AGT protein level after administration/before administration, Average ([2]; 0.3 mg/kg single s.c., Day 22 vs Day -6): 25.72% | plasma AGT protein level after administration/before administration, Average ([2]; 0.3 mg/kg single s.c., Day 71 vs Day -6): 51.76% | plasma AGT protein level after administration/before administration, Average ([2]; 3 mg/kg single s.c., Day 22 vs Day -6): 2.47% | plasma AGT protein level after administration/before administration, Average ([2]; 3 mg/kg single s.c., Day 71 vs Day -6): 9.88% | plasma AGT protein level after administration/before administration ([2]; 0.3 mg/kg single s.c., Day 22 vs Day -6, 0.3 mg/kg): 28.47% and 22.96% | plasma AGT protein level after administration/before administration ([2]; 0.3 mg/kg single s.c., Day 71 vs Day -6, 0.3 mg/kg): 55.17% and 48.35% | plasma AGT protein level after administration/before administration ([2]; 3 mg/kg single s.c., Day 22 vs Day -6, 3 mg/kg): 0.84% and 4.09% | plasma AGT protein level after administration/before administration ([2]; 3 mg/kg single s.c., Day 71 vs Day -6, 3 mg/kg): 10.84% and 8.92%
